Experimental data: ChEMBL document CHEMBL1765041, “An unprecedented neolignan skeleton from Chimarrhis turbinata” (J Nat Prod, 2011)

What follows are compounds tested on Radical scavenging activity (assay: Antioxidant activity assessed as DPPH free radical scavenging activity after 30 mins in dark by spectrophotometry).
Assay type: functional
In the case of `O=C(O[C@H]1[C@H]([C@@]2(c3ccc(O)c(O)c3)CC[C@H](Cc3ccc(O)c(O)c3)C(=O)O2)OC[C@@H]1O)c1cc(O)cc(O)c1` [CHIMARRHININ], the IC50 is reported as 7.5 µM.
`Cc1cc(C(C)(C)C)c(O)c(C(C)(C)C)c1` [BUTYLATED HYDROXYTOLUENE] showed an IC50 of 62.5 µM.
Work on `O=C(/C=C/c1ccc(O)c(O)c1)O[C@@H]1C[C@](O)(C(=O)O)C[C@@H](O)[C@H]1O` [CHLOROGENIC ACID] yielded an IC50 of 20 µM.
`COC(=O)C1(O)C[C@@H](O)[C@@H](O)[C@H](OC(=O)/C=C/c2ccc(O)c(O)c2)C1` (stereo not given in full) gave an IC50 of 18.6 µM.
`COC(=O)C1(O)C[C@@H](O)[C@@H](O)[C@H](OC(=O)/C=C\c2ccc(O)c(O)c2)C1` (stereo not given in full) showed an IC50 of 18.5 µM.
